In patent publication US6761123B2, “INFUSION OF COMBUSTION GASES INTO BALLAST WATER PREFERABLY UNDER LESS THAN ATMOSPHERIC PRESSURE TO SYNERGISTICALLY KILL HARMFUL AQUATIC NUISANCE SPECIES BY SIMULTANEOUS HYPERCAPNIA, HYPOXIA AND ACIDIC PH LEVEL” (MH Systems, priority 2001, dated 2004):

How the values were obtained:
barnacles = assay: Incubation of barnacles in gas-equilibrated seawater, survival by withdrawal of feet when disturbed; format: in vivo; conditions: 1.5 l seawater, 22° C., equilibrated with gas
Excerpt: (§1) The purpose of the experiments described here was to obtain data on the effects of “inert gas” on marine organisms. “Inert gas” of a mixture hereinafter called trimix—a commercially available gas mixture of […], 12% CO2 and 84% nitrogen resembling the gas generated by commercially used marine “inert gas generators”—was used. Both adult and young adult marine organisms were chosen for two reasons: a) to make the size of specimens amenable for the experimental setup and b) to raise the significance of possible effects since adults of a species are typically more tolerant of environmental changes than juveniles or larvae. All marine organisms were collected fresh from the coastal waters off La Jolla, Calif. and used immediately. They are, in that particular environment, not necessarily nuisance organisms. Some of the organisms might be so considered, however, should they be introduced into other waters. […]
(§2) The schematic of an experimental setup in validation of the principles and methods of the present invention (and also, a miniature scale, the gaseous exchange system) is shown in FIG. 1. […] The oxygen concentrations were measured after the initial bubbling period using a Strathkelvin oxygen electrode with a Cameron instruments OM-200 oxygen analyzer. Values of pH were determined using a combination electrode and a Radiometer pH meter. […]

mussels = assay: Incubation of mussels in gas-equilibrated seawater, survival by shell closing on tactile stimulus; format: in vivo; conditions: after 95 min incubation
Excerpt: as §1, §2

brittle stars = assay: Incubation of brittle stars in gas-equilibrated seawater, survival by motile response; format: in vivo; conditions: transfer to aerobic conditions
Excerpt: as §1, §2

[1] = Oxygen concentration and pH of seawater bubbled with the gas; format: physicochemical
Method: The schematic of an experimental setup in validation of the principles and methods of the present invention (and also, a miniature scale, the gaseous exchange system) is shown in FIG. 1. Three parallel incubations were done for each experiment. Several organisms were incubated in 1.5 l of seawater at 22° C. in large Erlenmeyer flasks. Each incubation was equilibrated with the respective gas using aquarium stones before any organisms were introduced. The aerobic control was bubbled from an aquarium pump for approximately 15 min and left open to the atmosphere after addition of specimens. An anaerobic incubation was bubbled with 99.998% nitrogen for 15 min. After introduction of the organisms, the bubbling was continued for another 10 min and then the container was closed with a rubber stopper or the bubbling was continued. The incubation in […] treated similarly except that the gas mix was used instead of nitrogen. The oxygen concentrations were measured after the initial bubbling period using a Strathkelvin oxygen electrode with a Cameron instruments OM-200 oxygen analyzer. Values of pH were determined using a combination electrode and a Radiometer pH meter.

[2] = tested on: plankton sample (mainly copepods); assay: Incubation of plankton sample (mainly copepods) in gas-equilibrated seawater; format: in vivo
Excerpt: as §1, §2

oxygen concentration of the incubation ([1]; measured after the initial bubbling period, oxygen electrode): non-detectable
pH value of the seawater bubbled with the gas ([1]; seawater, normal pH 8, trimix value after initial 10 min of vigorous bubbling): 8
SMILES: N#N [nitrogen]
state of barnacles after incubation (withdrawal of feet when disturbed) (barnacles): still behaved normally
response of mussels to tactile stimuli (closing shells) (mussels): still responded to tactile stimuli by closing their shells
state of mussel shells (mussels): open
movement of brittle stars after transfer into aerated water (brittle stars): started to move again
time after which plankton (mainly copepods) stopped moving ([2]; 1.5 l seawater, 22° C., equilibrated with gas): 15 min
revival of plankton (mainly copepods) ([2]; after they stopped moving): could not be revived
